Columns and labels:
Assay type in all cases: cell-based
[1] = target: T1, GLUT1 (Homo sapiens, UniProt P11166); test: glycolysis assay in DLD1 WT cells (rely on GLUT1); settings: for IC50: DLD1-WT cells, 10 μM oligomycin, one hour
T1 construct: endogenous in cells; host or cells: DLD1 WT cancer cells
T1 sequence (P11166 1-492): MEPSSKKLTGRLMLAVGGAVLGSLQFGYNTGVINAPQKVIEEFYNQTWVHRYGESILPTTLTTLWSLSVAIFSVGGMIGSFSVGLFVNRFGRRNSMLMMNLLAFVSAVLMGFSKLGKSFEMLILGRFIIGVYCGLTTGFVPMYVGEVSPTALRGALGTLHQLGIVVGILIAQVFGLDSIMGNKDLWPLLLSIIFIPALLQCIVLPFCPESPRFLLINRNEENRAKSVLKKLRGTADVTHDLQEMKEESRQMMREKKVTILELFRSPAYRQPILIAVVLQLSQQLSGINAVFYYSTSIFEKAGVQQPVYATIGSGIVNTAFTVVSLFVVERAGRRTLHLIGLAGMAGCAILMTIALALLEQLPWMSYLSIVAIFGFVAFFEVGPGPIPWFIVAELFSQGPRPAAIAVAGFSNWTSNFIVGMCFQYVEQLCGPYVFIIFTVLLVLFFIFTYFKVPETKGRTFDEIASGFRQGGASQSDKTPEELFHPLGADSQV
Procedure: (§1) Cells were treated with GLUT inhibitors plus oligomycin and subsequently ATP levels were determined using Cell Titer Glo. […] FIG. 1B reports the IC50 of glycolysis inhibition for selected compounds.
(§2) Accordingly, we have investigated the use of inhibitors of GLUT transporters against activated pro-inflammatory immune cells, including but not limited to activated human CD4+ T cells. In order to understand what GLUT transporters are required to sustain glycolysis in activated T cells, we first utilized the syngeneic cancer cell lines DLD1 WT and DLD GLUT1−/− that rely on GLUT1 and GLUT3 expression, respectively, for glucose transport. Within this system, we have identified small molecules that simultaneously have the property of inhibiting both GLUT1 and GLUT3 mediated glucose transport. In addition, we have confirmed the GLUT1-selective nature of a published small molecule inhibitor of GLUT1 (Chem Med Chem. 2016 Oct. 19; 11(20):2261-2271).
(§3) Determination of glucose uptake/GLUT activity (glycolysis assay): HT1080 cells, DLD1 cells (WT and GLUT1−/−) and human CD4+ T cells were plated in 96-well plates. Cells were exposed to the combination of 10 μM Oligomycin (to block mitochondrial-derived ATP) and the glucose uptake inhibitors disclosed herein for one-hour, after which glycolytically-derived ATP was measured with the Cell Titer-Glo assay kit (Promega). Dose-response curves of the glucose uptake inhibitors disclosed herein were used to determine the IC50 for GLUT activity.

[2] = system: activated human CD4+ T cells; test: one-hour glycolysis assay in activated human CD4 T cells; settings: human CD4 T cells activated 24 hours, one hour treatment plus oligomycin
Procedure: In FIG. 2A, human CD4 positive T cells were activated for 24 hours prior to a one hour treatment with the indicated glucose uptake inhibitors combined with 10 μM oligomycin. In FIG. 2B, human CD4 T cells were activated for 48 hours in the presence of the glucose uptake inhibitors. IL-17 and IL-2 secreted into the supernatant was measured by ELISA (R&D systems). Proliferation was measured by Cell Titer Glo (Promega). FIG. 2C lists the IC50 values (μM) for the glucose uptake inhibitors against activated T cell glycolysis, IL-17 secretion and proliferation. […] In FIG. 3A, human CD4 positive T cells were activated for 24 hours prior to a one hour treatment with Bay876 combined with 1 μM oligomycin. In FIG. 3B, human CD4 T cells were activated for 48 hours in the presence of Bay876. L-17 secreted into the supernatant was measured by ELISA (R&D systems). Proliferation was measured by Cell Titer Glo (Promega). […] At this time, secreted IL-17, IL-2 and relative cell number were measured (FIG. 2B, right panel). […] Cells were exposed to the combination of 10 μM Oligomycin (to block mitochondrial-derived ATP) and the glucose uptake inhibitors disclosed herein for one-hour, after which glycolytically-derived ATP was measured with the Cell Titer-Glo assay kit (Promega). […] IL-17 levels were measured by ELISA (R&D systems, Human IL-17 Quantikine ELISA kit). Proliferation was measured by Cell Titer Glo (Promega). […]

[3] = system: GLUT; test: glycolysis assay (oligomycin + Cell Titer-Glo ATP readout) in HT1080 cells; settings: 10 μM oligomycin, one hour, glycolytically-derived ATP
Excerpt: The combination of inhibitors of both oxidative phosphorylation and glycolysis synergistically suppress cellular ATP levels. Therefore, our assay utilizes the combination of our glucose uptake inhibitors with oligomycin, a well-characterized inhibitor of ATP synthase. Because oligomycin inhibits ATP derived from oxidative phosphorylation, any remaining ATP production is derived from glycolysis. By reading out cellular ATP levels using the Promega
Titer Glo kit, we can assess the extent of glycolysis inhibition by our glucose uptake inhibitors. Using this experimental set-up in HT1080 cancer cells, we determined the IC50 of glycolysis inhibition for the compounds.
as §3

[4] = target: T2, GLUT3 (Homo sapiens, UniProt P11169); test: glycolysis assay in DLD1 GLUT1−/− cells (rely on GLUT3); settings: DLD1-KO (GLUT1−/−) cells; 10 μM oligomycin, one hour
T2 construct: endogenous in cells; host or cells: DLD1 GLUT1−/− (knock-out) cancer cells
T2 sequence (P11169 1-496): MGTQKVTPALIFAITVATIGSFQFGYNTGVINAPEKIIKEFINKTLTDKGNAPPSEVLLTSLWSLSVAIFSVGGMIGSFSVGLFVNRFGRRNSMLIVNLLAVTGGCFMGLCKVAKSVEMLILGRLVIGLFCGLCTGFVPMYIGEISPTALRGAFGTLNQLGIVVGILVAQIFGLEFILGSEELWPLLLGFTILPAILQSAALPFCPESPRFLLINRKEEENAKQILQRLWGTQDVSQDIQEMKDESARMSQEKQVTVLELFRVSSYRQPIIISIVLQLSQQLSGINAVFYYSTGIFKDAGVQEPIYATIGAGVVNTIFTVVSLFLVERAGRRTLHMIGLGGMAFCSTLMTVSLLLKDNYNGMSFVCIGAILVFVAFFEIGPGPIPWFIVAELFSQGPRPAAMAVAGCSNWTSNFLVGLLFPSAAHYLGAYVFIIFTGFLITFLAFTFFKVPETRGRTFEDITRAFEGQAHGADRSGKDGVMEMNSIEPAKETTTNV
Procedure: as §1, §2, §3

Compound | GLUT selectivity (inhibition of glycolysis) ([1]; DLD1 WT versus DLD1 GLUT1−/− cells) | IC50 [3] [nM] | IC50 [1] [nM] | IC50 [4] [nM] | glycolysis in activated T cells [2]
Cc1c(NC(=O)c2cc(C(N)=O)nc3cc(F)ccc23)c(C(F)(F)F)nn1Cc1ccc(C#N)cc1 [Bay876] | selective for GLUT1 |  |  |  | neither inhibited glycolysis
CCC(C)NC(=O)COc1cccc(-c2nc(Nc3ccc(-c4cn[nH]c4)cc3)c3cc(OCCF)ccc3n2)c1 (centres unmarked) [Ex. 43, 2-(3-(4-((4-(1H-pyrazol-4-yl)phenyl)amino)-6-(2-fluoroethoxy)quinazolin-2-yl)phenoxy)-N-(sec-butyl)acetamide] |  | 46 | 34.4 | 58.9 | 
CCC(C)NC(=O)COc1cccc(-c2nc(Nc3ccc(-c4cn[nH]c4)cc3)c3cc(F)ccc3n2)c1 (centres unmarked) [Ex. 44, 2-(3-(4-((4-(1H-pyrazol-4-yl)phenyl)amino)-6-fluoroquinazolin-2-yl)phenoxy)-N-(sec-butyl)acetamide] |  | 123 | 91.2 | 159 | 
CC[C@H](C)NC(=O)COc1cccc(-c2nc(Nc3ccc(-c4cn[nH]c4)cc3)c3cc(OCCOC)ccc3n2)c1 [Ex. 45, (S)-2-(3-(4-((4-(1H-pyrazol-4-yl)phenyl)amino)-6-(2-methoxyethoxy)quinazolin-2-yl)phenoxy)-N-(sec-butyl)acetamide] |  | 25.1 | 25.2 | 40.6 | 
CC[C@H](C)NC(=O)COc1cccc(-c2nc(Nc3ccc(-c4cn[nH]c4)cc3)c3cc(OCCF)ccc3n2)c1 [Ex. 46, (S)-2-(3-(4-((4-(1H-pyrazol-4-yl)phenyl)amino)-6-(2-fluoroethoxy)quinazolin-2-yl)phenoxy)-N-(sec-butyl)acetamide] |  | 37.1 | 34.8 | 87 | 
CC[C@H](C)NC(=O)COc1cccc(-c2nc(Nc3ccc(-c4cn[nH]c4)cc3)c3cc(F)ccc3n2)c1 [Ex. 47, (S)-2-(3-(4-((4-(1H-pyrazol-4-yl)phenyl)amino)-6-fluoroquinazolin-2-yl)phenoxy)-N-(sec-butyl)acetamide] |  | 111 | 94.9 | 133 | 
CCC(C)NC(=O)COc1cccc(-c2nc(Nc3ccc(-c4cn[nH]c4)cc3)c3ccc(F)cc3n2)c1 (centres unmarked) [Ex. 53, 2-(3-(4-((4-(1H-pyrazol-4-yl)phenyl)amino)-7-fluoroquinazolin-2-yl)phenoxy)-N-(sec-butyl)acetamide] |  | 283 | 222 | 271 | 
CC[C@H](C)NC(=O)COc1cccc(-c2nc(Nc3ccc(-c4cn[nH]c4)cc3)c3ccc(F)cc3n2)c1 [Ex. 54, (S)-2-(3-(4-((4-(1H-pyrazol-4-yl)phenyl)amino)-7-fluoroquinazolin-2-yl)phenoxy)-N-(sec-butyl)acetamide] |  | 196 | 146 | 290 | 
CC[C@@H](C)NC(=O)COc1cccc(-c2nc(Nc3ccc(-c4cn[nH]c4)cc3)c3ccc(F)cc3n2)c1 [Ex. 55, (R)-2-(3-(4-((4-(1H-pyrazol-4-yl)phenyl)amino)-7-fluoroquinazolin-2-yl)phenoxy)-N-(sec-butyl)acetamide] |  | 190 | 192 | 238 | 

The remaining compounds from weak to strong by IC50 [3], led by results:

GLUT selectivity (inhibition of glycolysis) ([1]; DLD1 WT versus DLD1 GLUT1−/− cells) | IC50 [3] [nM] | IC50 [1] [nM] | IC50 [4] [nM] | Compound | glycolysis in activated T cells [2]
 | 113 | 106 | 125 | CC[C@@H](C)NC(=O)COc1cccc(-c2nc(Nc3ccc(-c4cn[nH]c4)cc3)c3cc(F)ccc3n2)c1 [Ex. 51, (R)-2-(3-(4-((4-(1H-pyrazol-4-yl)phenyl)amino)-6-fluoroquinazolin-2-yl)phenoxy)-N-(sec-butyl)acetamide] | 
 | 92.1 | 81.6 | 118 | CC[C@@H](C)NC(=O)COc1cccc(-c2nc(Nc3ccc(-c4cn[nH]c4)cc3)c3cc(OC)ccc3n2)c1 [Ex. 52, (R)-2-(3-(4-((4-(1H-pyrazol-4-yl)phenyl)amino)-6-methoxyquinazolin-2-yl)phenoxy)-N-(sec-butyl)acetamide] | 
 | 81.5 | 71.6 | 110 | CC[C@H](C)NC(=O)COc1cccc(-c2nc(Nc3ccc(-c4cn[nH]c4)cc3)c3cc(OC)ccc3n2)c1 [Ex. 48, (S)-2-(3-(4-((4-(1H-pyrazol-4-yl)phenyl)amino)-6-methoxyquinazolin-2-yl)phenoxy)-N-(sec-butyl)acetamide] | 
 | 44.7 | 38.5 | 72.1 | CC[C@@H](C)NC(=O)COc1cccc(-c2nc(Nc3ccc(-c4cn[nH]c4)cc3)c3cc(OCCF)ccc3n2)c1 [Ex. 50, (R)-2-(3-(4-((4-(1H-pyrazol-4-yl)phenyl)amino)-6-(2-fluoroethoxy)quinazolin-2-yl)phenoxy)-N-(sec-butyl)acetamide] | 
 | 30.7 | 30.3 | 50.9 | CC[C@@H](C)NC(=O)COc1cccc(-c2nc(Nc3ccc(-c4cn[nH]c4)cc3)c3cc(OCCOC)ccc3n2)c1 [Ex. 49, (R)-2-(3-(4-((4-(1H-pyrazol-4-yl)phenyl)amino)-6-(2-methoxyethoxy)quinazolin-2-yl)phenoxy)-N-(sec-butyl)acetamide] | 

Reference: US11071735B2, “Treatment of inflammatory conditions and autoimmune diseases with glucose uptake inhibitors” (Kadmon Corporation, LLC, priority 2017, dated 2021)
